# Measured values: patent US20030158267A1, “Method and compositions for inhibiting the scent tracking ability of biting midges” (priority 2002, published 2003)
# Test system: biting midges (Culicoides furens)
# Experiment: Competitive field test: biting midges attracted to, killed by and collected in a CO2/octenol-baited heated electrical grid device, with or without test compound emitted
# Type: in vivo
# Details: for Midges collected: linalool 1 mg/hr; for Reduction of average biting midge kill counts: over three trials, linalool 1 mg/hr vs no linalool
# Description: A device comprising a cylindrical housing essentially shaped like an opened one-gallon paint can, was equipped to release determinable amounts of one or more of CO2, octenol and test compound of this invention. The device housing was equipped (covered) at it its open end with an electrical grid operating at a temperature of approximately 110° F. (44° C.) for killing any midges attracted to the grid and thereby collecting the killed midges in the housing. With the device in operation, biting midges would be attracted by the scent of CO2 and/or octenol eminating from the interior of the housing and from the heat of the electrical grid. Then, with the additional introduction of test compound from the housing it was possible to determine the inhibiting effect of the test compound by determining the decrease in biting midges attracted and killed by the teat device. The test was conducted in a designated test area known for its abundance of biting midges along the Indian River in Vero Beach, Fla. at the U.S. Department of Agriculture test facility. Competitive tests were conducted over a twelve day period in September.. During Days 1 to 3 and 7 to 9 the test conditions of the test device were set to mimic a bird as the target, namely the device emitted 50 cc/min CO2 and no octenol, and during Days 4 to 6 and 10 to 12 the test conditions were set to mimic a mammal as the target, namely the device emitted 50 cc/min CO2 and 7 mg/hr octenol. In these competitive tests, the inhibiting compound was either not emitted (Days 1 to 6) or emitted (Days 7 to 12). The test then determined the number of midges killed and collected in the device without the test compound present, and the number of midges killed and collected in the device with the test compound present in order to determine the ability of the test compound to inibit the ability of the biting midges (Culicoides furens) to sense the […] target.
smiles,measurement,setting,value
"C=CC(C)(O)CCC=C(C)C (centres unmarked) [Linalool, linalool]",Midges collected,"Day 7, device mimicking a bird: CO2 50 cc/min, octenol 0 mg/hr",13
same,Midges collected,"Day 8, device mimicking a bird: CO2 50 cc/min, octenol 0 mg/hr",5
same,Midges collected,"Day 9, device mimicking a bird: CO2 50 cc/min, octenol 0 mg/hr",14
same,Midges collected,"Day 10, device mimicking a mammal: CO2 50 cc/min, octenol 7 mg/hr",29
same,Midges collected,"Day 11, device mimicking a mammal: CO2 50 cc/min, octenol 7 mg/hr",81
same,Midges collected,"Day 12, device mimicking a mammal: CO2 50 cc/min, octenol 7 mg/hr",364
same,"Midges collected, total","Days 7-9 total, bird mimic: CO2 50 cc/min, no octenol, linalool 1 mg/hr (without linalool, days 1-3: total 176)",Total 32
same,"Midges collected, Avg./day","Days 10-12 average per day, mammal mimic: CO2 50 cc/min, octenol 7 mg/hr, linalool 1 mg/hr (without linalool: 1137)",Avg./day 158
same,"Midges collected, total","Days 10-12 total, mammal mimic: CO2 50 cc/min, octenol 7 mg/hr, linalool 1 mg/hr (without linalool, days 4-6: total 3410)",Total 474
same,Reduction of average biting midge kill counts,"device mimicking a bird (CO2 50 cc/min, no octenol)",81%
same,Reduction of average biting midge kill counts,"device mimicking a mammal (CO2 50 cc/min, octenol 7 mg/hr)",86%
